Measurements published in US7674772B2, “Compositions and methods for treating atherosclerosis” (Queen's University at Kingston, priority 2006, dated 2010).
Square brackets hold non-standard residues; d marks the D form. Ends that are not written are not given here.

Experiments:
[1] = test system: [3H]-cholesterol-loaded J774 macrophages; assay: in vivo mouse cholesterol export model; set-up: species or system mice
Description: In these experiments, mice (n=4) were first injected intravenously with [^3H]cholesterol-laden macrophages and then injected 24 hours later with the exemplary retro-inversal D amino acid peptide RFHNPDKGSRGWENAAQDA (D-form; SEQ ID NO: 3). This peptide is the reverse sequence of the forward human D amino acid 19-mer peptide ADQAANEWGRSGKDPNHFR (D-form; SEQ ID NO:11) disclosed in U.S. patent application Ser. No. 11/268,690, filed Nov. 7, 2005, teachings of which are herein incorporated by reference in their entirety.
The retro-inversal D amino acid peptide RFHNPDKGSRGWENAAQDA (SEQ ID NO: 3) at a total dose of 300 ug, was injected into the tail vein of each mouse that was previously (24 hours earlier) injected with H^3-radiolabeled cholesterol-loaded macrophages. […] The blood samples were centrifuged to separate the red blood cells from the plasma and the [^3H]-cholesterol in plasma was determined by scintillation counting. […]
Cells were washed four times with PBS/BSA and then detached from the culture dishes. […] Baseline cholesterol efflux was determined by measuring the amount of [^3H]-cholesterol in plasma by scintillation spectrometry. […]
Five hours following intravenous injection of the reverse peptide, approximately 25 μl of blood were collected from the tail vein of each animal into heparinized capillary tubes and cholesterol efflux was determined as described above. […]

mouse cell culture = details: U.S. Ser. No. 11/268,690; cited from earlier work
human cell culture = details: U.S. Ser. No. 11/268,690; cited from earlier work
[2] = intravenous and oral administration of an aqueous solution; U.S. Ser. No. 11/268,690; cited from earlier work

Sequence	increase in macrophage cholesterol export relative to control animals treated with saline vehicle alone ([1]; 300 μg total dose, tail vein injection, [3H]-cholesterol in plasma 5 hours post injection, n=4, p=0.0004)	in vivo macrophage cholesterol export / cholesterol efflux ([1]; intravenous, aqueous vehicle, versus vehicle control group (p=0.0004))	cholesterol efflux in vitro (mouse cell culture)	cholesterol efflux in vitro (human cell culture)	cholesterol efflux in vivo [2]
RFHNPDKGSRGWENAAQDA ([dR][dF][dH][dN][dP][dD][dK]G[dS][dR]G[dW][dE][dN][dA][dA][dQ][dD][dA]) [SEQ ID NO: 3]	over 2.5 fold	significantly enhanced	–	–	–
ADQAANEWGRSGKDPNHFR ([dA][dD][dQ][dA][dA][dN][dE][dW]G[dR][dS]G[dK][dD][dP][dN][dH][dF][dR]) [SEQ ID NO:11, forward human SAA 1.1 D amino acid 19-mer peptide disclosed in U.S. Ser. No. 11/268,690]	–	–	effective at increasing cholesterol efflux	effective at increasing cholesterol efflux	effective at increasing cholesterol efflux
